The text below walks through data of patent US20120264703A1, “Methods And Compositions For The Treatment Of Anxiety Disorders, Including Post Traumatic Stress Disorder (PTSD) And Related Central Nervous System (CNS) Disorders” (priority 2010, published 2012).

For data set [1], the system named is patients with Post Traumatic Stress Disorder (PTSD). Briefly: Clinical trial of carvedilol versus placebo in the treatment of PTSD (efficacy scales). Type of data set: in vivo, human. Also noted: key to Davidson Trauma Scale (DTS) change score / mean change score (DTS): change in DTS total score (34-item patient-rated, max 136); key to Insomnia Severity Index (ISI) change score: change in ISI score (self-rated 7-item scale, max 28); key to Davidson Trauma Scale (DTS) change score, mean change (SD): mean (SD) change in DTS total score (max 136). As to conditions: for Clinician Administered PTSD Scale (CAPS II) change score: completer only analysis. The source says:
The efficacy of carvedilol was examined in a clinical trial using a parallel group, randomized, double-blind method with 50% of the outpatients receiving a flexible dose of alpha and beta blocker carvedilol for treatment of PTSD and the other 50% receiving a flexible close of matching placebo tablets. The trial consisted of a one week screening period followed by baseline symptom measurement and five weeks of PTSD pharmacotherapy. Patient assessments took place each week throughout the course of the trial. Patients between 18 and 70 years of age were eligible for enrollment. A minimum score of 60 was required on the Clinician Administered PTSD Scale (CAPS-II) at the screening visit and all patients met clinical criteria for PTSD in accordance with the Diagnostic and Statistical Manual IV and confirmed by the Mini International Neuropsychological Interview (MINI). Eighty-three subjects were enrolled and randomized to carvedilol or placebo. […] The final efficacy analysis included 38 patients allocated to carvedilol, and 39 patients allocated to placebo. All of the patients, study coordinators, and principal investigators were blinded from the patient treatment allocation. Patients were randomly assigned to kits containing carvedilol or placebo at the baseline visit. At the baseline visit, all patients were titrated to one dose of 3.125 mg carvedilol or placebo in the morning and an additional dose in the evening for the first week of the trial (6.25 mg carvedilol per day). At the discretion of the investigator the dose of carvedilol or placebo could be increased to a maximum of two tablets (6.250 mg carvedilol) in the morning and two tablets (6.250 mg carvedilol) in the evening during the following visit (week 1). At the week 2 visit the investigator could increase the dose of carvedilol or placebo to a maximum of 5 pills daily (15.625 mg carvedilol per day) based on patient tolerability and treatment response. After the second visit investigators were encouraged to maintain patient dose throughout the remainder of the five week trial although they were allowed to decrease the dose in the event that tolerability issues arose. Although a minimum score of 60 on the CAPS-II was required at the screening visit as entry criteria, the Davidson Trauma Scale (DTS) was used as primary outcome measurement. The DTS is a 34-item patient rated scale with a maximum total score of 136. The DTS is designed to measure frequency and severity of three subtypes of PTSD symptoms: intrusion, avoidance and hyperarousal. Patients completed the DTS at the baseline visit and at each visit throughout the course of the trial. Secondary outcome measures included the Insomnia Severity Index (ISI), the Clinician Global Impressions (CGI) Scale, and each of the three DTS subscales. The ISI is a self-rated 7-item scale (maximum score=28) designed to measure insomnia during clinical research. The ISI was completed at each visit throughout the trial. The CGI was also completed during each visit. As an additional secondary outcome, the change in CAPS-II score was evaluated from the screening visit to the last trial visit for patients that completed the trial. The trial data analysis was designed to investigate the hypothesis that carvedilol would provide relief from symptoms for patients clinically diagnosed with PTSD. To evaluate this possibility, an analysis of covariance (ANCOVA) test was conducted on the primary outcome variable and a series of independent samples t tests were conducted on secondary outcome variables. Each statistical test was conducted using SPSS version 19.0 (IBM). All patients that completed the baseline visit and at least one follow up measurement were included in the analysis. […] Therefore, the final completed measurement of PTSD symptoms was used as the end data point in the event that patients terminated from the trial early. […]

The subject of data set [2] is male Sprague-Dawley rats. Put plainly: Escape/avoidance behavior after tailshock stress (Example 1). In kind it is in vivo, rat. As to conditions: compared to animals that did not receive medication. An excerpt: Subjects are male, Sprague-Dawley (SD) rats. They are approximately 60-days-old and 300-350 g at the time of testing. They are maintained on ad lib food and water except during the stress and escape/avoidance sessions. Subjects are maintained on a 12:12 light/dark cycle, with lights on at 0700. […] The animals that receive shocks are restrained in plastic tubes (Harvard Apparatus, Inc, Holliston, Mass., USA) and have tail electrodes attached. The single shock session consists of forty 3-s, 2-mA tailshocks, presented on a variable time (VT) 3-min schedule, making the shock session approximately 2 h in duration. Escape/avoidance sessions are conducted in 4 operant chambers (Coulbourn, Inc, Allentown, Pa., USA). The chambers are 30.5 cm wide×25.4 cm deep×30.5 cm high and have a lever mounted on one wall. Subjects are allowed approximately 1 min to explore the chamber before the session begins. The trial begins with a warning signal and houselight. […] 60 s of the warning signal, they receive 1.0-mA footshock through the grid floor. […] A […] shock is classified as an “escape”, while a response that occurred during the initial 60 s of the warning signal before the shock is classified as an “avoidance.” The number of escape and avoidance responses by hour across the session, percent avoidance, and the number of leverpresses during the safety period (a putative measure of anxiety) are analyzed. […]

For data set [3] the following is noted: cited from earlier work.
For data set [4] the following is noted: in vivo; cited from earlier work.
Data set [5] in a line: Clinical trial of carvedilol versus placebo in PTSD: adverse events, blood pressure, heart rate. In kind it is in vivo, human. The source says:
The efficacy of carvedilol was examined in a clinical trial using a parallel group, randomized, double-blind method with 50% of the outpatients receiving a flexible dose of alpha and beta blocker carvedilol for treatment of PTSD and the other 50% receiving a flexible close of matching placebo tablets. The trial consisted of a one week screening period followed by baseline symptom measurement and five weeks of PTSD pharmacotherapy. Patient assessments took place each week throughout the course of the trial. At the baseline visit, all patients were titrated to one dose of 3.125 mg carvedilol or placebo in the morning and an additional dose in the evening for the first week of the trial (6.25 mg carvedilol per day). At the discretion of the investigator the dose of carvedilol or placebo could be increased to a maximum of two tablets (6.250 mg carvedilol) in the morning and two tablets (6.250 mg carvedilol) in the evening during the following visit (week 1). At the week 2 visit the investigator could increase the dose of carvedilol or placebo to a maximum of 5 pills daily (15.625 mg carvedilol per day) based on patient tolerability and treatment response. After the second visit investigators were encouraged to maintain patient dose throughout the remainder of the five week trial although they were allowed to decrease the dose in the event that tolerability issues arose.

The conditions of data set [6]: low solubility and low absorption; cited from earlier work.
Data set [7] can be described thus: Pharmacokinetic properties of carvedilol by oral dosage form and transdermal patch (Example 6). Type of data set: in vivo, human. Here is the method:
The pharmacokinetic properties of orally and transdermal patch delivered carvedilol can be measured in a human subject or animal model using standard procedures. In brief, a carvedilol oral dosage form of between 5-15 mg can be administered to a human subject in a tablet or capsule. A similar dosage can be administered to a human subject from a transdermal patch that is formulated and evaluated for skin permeation (such as as described by Ubaidulla et al., 2007). After administration of carvedilol, blood samples are drawn from the subject at time intervals (such as 1, 2, 3, 5, 8, 12, and 24 hours), plasma is separated by centrifugation, and plasma samples are stored at −70° C. until analyzed. The plasma carvedilol concentration is measured by reverse phase-high performance liquid chromatography (Ubaidulla et al., 2007).
The plasma concentration of carvedilol at different time intervals is subjected to pharmacokinetic analysis to calculate various parameters: maximum plasma concentration (Cmax), time to reach maximum concentration (Tmax), and area under the plasma concentration-time curve (AUC0→24) as described (Ubaidulla et al., 2007). The values of Cmax and Tmax are read directly from the arithmetic plot of time vs plasma concentration of carvedilol. The AUC is calculated by using the trapezoidal rule. […]

The target in data set [8] is T1, alkaline phosphatase (Bos taurus, UniProt P19111).
T1 construct: purchased Sigma P0114
T1 sequence (P19111 20-506): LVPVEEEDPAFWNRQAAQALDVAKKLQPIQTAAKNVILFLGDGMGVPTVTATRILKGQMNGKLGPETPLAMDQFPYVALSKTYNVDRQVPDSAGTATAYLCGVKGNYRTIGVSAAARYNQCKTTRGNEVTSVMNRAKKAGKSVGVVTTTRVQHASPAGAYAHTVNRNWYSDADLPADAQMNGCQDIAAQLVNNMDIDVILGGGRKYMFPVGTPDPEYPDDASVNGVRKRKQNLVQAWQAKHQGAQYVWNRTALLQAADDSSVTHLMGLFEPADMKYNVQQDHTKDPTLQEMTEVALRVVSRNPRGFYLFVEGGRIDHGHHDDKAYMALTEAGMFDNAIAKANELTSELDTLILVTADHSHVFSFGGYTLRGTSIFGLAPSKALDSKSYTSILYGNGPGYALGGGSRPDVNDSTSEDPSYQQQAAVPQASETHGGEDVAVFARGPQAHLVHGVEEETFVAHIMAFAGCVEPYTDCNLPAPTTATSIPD
Briefly: Dephosphorylation of phosphocarvedilol by alkaline phosphatase (HPLC). In kind it is biochemical. As to conditions: alkaline phosphatase 1390 Units, overnight at 37° C., TRIS pH 8.1. Here is the method:
The dried residue was reconstituted in a 1 mL solution of TRIS (pH 8.1, 0.05M) and NaCl (0.1M) for dephosphorylation with alkaline phosphatase. Dephosphorylation was initiated by adding 10 μL (1390 Units) of alkaline phosphatase (Sigma P0114) and incubating overnight at 37° C. 10 μL aliquots were removed and diluted to 100 μL in mobile phase before analyzing by injecting onto the HPLC column (as described above) in 20 μL amounts. After treatment with the alkaline phosphatase, a carvedilol peak with a retention time of about 14.95 minutes was detected.

Where [9] appears, read: males and females that were not veterans.
Where [10] appears, read: males and females that were not veterans (n=31).

Molecules are shown by their SMILES.

Regarding `COc1ccccc1OCCNCC(O)COc1cccc2[nH]c3ccccc3c12` (racemic) [carvedilol, (±) 1-(9H-carbazol-4-yloxy)-3-[[2(2-methoxyphenoxy)ethyl]amino]-2-propanol], the “mean change score (DTS)” value in data set [1] (15 female assault victims (physical or sexual assault)) is −31.8. Also, the “mean DTS change score” value in data set [1] (all patients assigned to carvedilol (n=38), baseline to final visit, LOCF, 6.25-15.625 mg per day, five weeks) is recorded as −24.6 (SD±23.8). The “effect size d, change score, carvedilol vs placebo” value in data set [1] (female assault victims) came out at 0.95. In data set [1] (setting [9]), the “effect size d, DTS Avoidance Subscale, carvedilol vs placebo” value is listed as “d = 0.21”; the “effect size d, DTS Hyperarousal Subscale, carvedilol vs placebo” value is on record as “d = 0.18”; the “effect size d, DTS Intrusiveness Subscale, carvedilol vs placebo” value is “d = 0.61”; the “effect size d, DTS change score, carvedilol vs placebo” value was “d = 0.36”. For the same compound, in data set [1] (setting [9]), the “effect size d, Insomnia Severity Index, carvedilol vs placebo” value is given as “d = 0.47” and the “Clinician Administered PTSD Scale (CAPS II) change score” value is recorded as −20.6 ± 22.2. For the same compound, in data set [1] (setting [10]), the “DTS Avoidance Subscale change score” value is reported as −8.7 ± 12.4, the “DTS Hyperarousal Subscale change score” value is reported as −7.7 ± 6.3, the “DTS Intrusiveness Subscale change score” value is reported as −8.8 ± 8.8 and the “Insomnia Severity Index (ISI) change score” value is reported as −5.8 ± 6.8. Besides, the “Davidson Trauma Scale (DTS) change score, mean change (SD)” value in data set [1] (males and females that were not veterans (n=31, 69% female), LOCF) was −25.2 ± 25.3. Further, in data set [1] (men (n=17)), the “Clinician's Global Impression (CGI) change score” value was −1.2 ± 1.3, the “DTS Avoidance Subscale change score” value is −6.4 ± 8.3, the “DTS Hyperarousal Subscale change score” value is reported as −6.6 ± 7.4 and the “DTS Intrusiveness Subscale change score” value was −5.9 ± 7.5. Further, the “Insomnia Severity Index (ISI) change score” value in data set [1] (men (n=17)) is −6.8 ± 6.7. In addition, the “Davidson Trauma Scale (DTS) change score” value in data set [1] (men (n=17), baseline to final visit, LOCF) is −18.8 (SD±19.1). Further, the “Davidson Trauma Scale (DTS) change score” value in data set [1] (men (n=17), baseline to final visit, LOCF, listed as Carvedilol) was −18.8 ± 19.1. The “Clinician Administered PTSD Scale (CAPS II) change score” value in data set [1] (men, screening visit to week 7 final visit) is listed as −16.2 ± 19.0. In data set [1] (women (n=21)), the “Clinician's Global Impression (CGI) change score” value is −1.8 ± 0.2, the “DTS Avoidance Subscale change score” value is listed as −10.4 ± 14.0, the “DTS Hyperarousal Subscale change score” value is −9.0 ± 8.9 and the “DTS Intrusiveness Subscale change score” value is given as −9.9 ± 8.2. In addition, the “Insomnia Severity Index (ISI) change score” value in data set [1] (women (n=21)) is recorded as −5.1 ± 6.3. Besides, in data set [1] (women (n=21), baseline to final visit, LOCF), the “Davidson Trauma Scale (DTS) change score” value is reported as −29.2 (SD±26.5). Moreover, in data set [1] (women (n=21), baseline to final visit, LOCF, listed as Carvedilol), the “Davidson Trauma Scale (DTS) change score” value is given as −29.2 ± 26.5. Besides, the “Clinician Administered PTSD Scale (CAPS II) change score” value in data set [1] (women, screening visit to week 7 final visit) is listed as −21.7 ± 25.2. Also, the “number of avoidance responses 24 h after tailshock” value in data set [2] is listed as “decrease in the number of avoidance response 24 h later”. The “logarithmic partition coefficient, log octanol/buffer pH 7.4” value in data set [3] is 0.61±0.06. Moreover, in data set [4], the plasma half-life result is “approximately 6 hours”. Moreover, in data set [5] (28 patients assigned to carvedilol), the “patients that reported adverse events” value is given as 66%. For the same compound, in data set [5] (baseline visit to end of study), the “mean change in diastolic blood pressure” value is given as −0.7 mm Hg, the “mean change in heart rate” value is −3.7 beats/minute and the “mean change in systolic blood pressure” value is recorded as −4.3±9.7 mm Hg. The “adverse events that occurred in over 5% of carvedilol patients” value in data set [5] (human, in vivo) was “somnolence, headache and common cold”. The “Biopharmaceutics Classification System class” value in data set [6] is listed as “Class 4”. Besides, the “Cmax, oral versus transdermal patch administration” value in data set [7] (oral and transdermal patch) is recorded as “approximately similar”. Moreover, in data set [7] (transdermal patch vs oral), the “AUC, transdermal patch relative to oral administration” value was 2.5 to 3 fold.

As to `COc1ccccc1OCCNCC(COc1cccc2[nH]c3ccccc3c12)OP(=O)([O-])[O-].[Na+].[Na+]` (stereo not drawn), in data set [8], the “generation of carvedilol by enzymatic dephosphorylation (HPLC)” value is “the carvedilol HPLC peak reappeared”.
